Assay results: patent US20150250864A1, “ANTI-CANCER VACCINES” (Board of Regents, The University of Texas System, priority 2012, published 2015)

Tested on: T cells in PBMCs
Assay: IFN-γ release by ELISA from PBMC stimulated with peptides or protein
Format: cell-based, human
Conditions: stimulated PBMC, FIG. 21A
Description: FIG. 17. T cell stimulation by HERV-K peptides. Peptides (p73-76 and p18-135) or HERV-K SU fusion proteins were used to stimulate PBMC and evaluated in vitro for their ability to stimulate T cells in PBMCs from healthy subjects (ND1007083; left) and/or cancer patients (BC 243; right), based on interferon-γ(IFN-γ) release by ELISA. KLH peptide and GST protein were used as controls. Other negative controls included media only, DMSO, and PBS.
FIG. 18. T cell stimulation by HERV-K peptides. Peptides (p73-76: left; and p18-135: middle) or HERV-K SU fusion proteins (right) were used to stimulate PBMC and evaluated in vitro for their ability to stimulate T cells in PBMCs from healthy subjects and/or cancer patients (BC 243; middle), based on interferon-γ (IFN-γ) release by ELISA. OD values of interferon-γ (IFN-γ) release were compared between normal donors (ND447549, ND1001366, and ND1007083) and cancer patients (OC222, OC 210, OC212, and BC243). OC is ovarian cancer and BC is breast cancer
FIGS. 21A-C. T Cell Stimulation. 9 mer Peptides (HERVK-3, HERVK-4, HERVK-11, and HERVK-18; see Table 1), p73-76 and p18-135 (Table 1 178 and 179), or HERV-K SU fusion proteins were used to stimulate PBMC and evaluated in vitro for their ability to stimulate T cells in PBMCs from healthy subjects and/or cancer patients, based on IFN-γ and Granzyme B release by ELISA. (FIG. 21A) OD values of IFN-γ release were compared in a normal donor (ND291812). (FIG. 21B) OD values of IFN-γ release were compared between a normal donor (ND291817) and an ovarian cancer patient (OC153). (FIG. 21C) OD values of Granzyme B release were compared between a normal donor (ND291817) and an ovarian cancer patient (OC153). Each dot represents an individual clone. Negative controls measured release of effector molecules from cancer cells after treatment with supernatants obtained from PBMCs without stimulation with HERV-K peptides or protein; positive controls were stimulated with PMA/ONO.
Cancer patients were enrolled to evaluate HERV-K as a tumor associated antigen target. Patients provided written informed consent as part of an approved protocol (LAB04-0083) at MD Anderson Cancer Center prior to commencing the studies. Normal healthy donor control blood samples were obtained from Gulf Coast Regional Blood Center, Houston Tex. 40 mL of peripheral blood was obtained from each patient, and peripheral blood mononuclear cells (PBMCs) were isolated by density gradient centrifugation using Histopaque-1077 (Sigma-Aldrich; USA). HLA-A*02 expression in PBMCs obtained from cancer patients and healthy subjects was determined by flow cytometry with PE Mouse anti-human HLA-A2 mAb BB7.2 (BD Pharmingen; San Diego, Calif., USA). Mouse IgG2b was used as an isotype control. PBMCs (5×10^5 cells/well) from either healthy subjects or cancer patients were incubated with Peptide #18-135 ([…]; SEQ ID NO: 178), Peptide #73-76 ([…]; SEQ ID NO: 179) or KLH as control peptide) or proteins (HERV-K env SU protein or GST protein as control) at concentrations of 40 μg/mL in 96-well U-bottom microplates (BD; Franklin Lakes, N.J., USA) in 100 μL of T-cell medium (TCM), consisting of RPMI 1640 (Mediatech; Manassas, Va., USA), 10% human AB serum (Valley Biomedical, Winchester, USA), […] 2-mercaptoethanol, 100 IU/mL interleukin-2 (IL-2), and 0.1 mM MEM nonessential amino acid solution (Invitrogen; Grand Island, N.Y., USA). Half of the TCM was removed and replaced with fresh TCM containing peptides (20 μg/mL) on day 7. After 14 days of culture, the supernatants from cell culture media (PBMC pulsed with peptides or proteins) were harvested and tested for their ability to produce IFN-gamma or IL-2, and granzyme B release was also determined by enzyme-linked immunosorbent assay (ELISA) assay. In order to detect the secreted cytokine in this assay, high-binding plates were coated with 5 μg/ml anti-IFN-γ (Mabtech, Stockholm, Sweden) diluted in PBS buffer at 4° C. overnight. […]

Row | Sequence | IFN-γ release (OD values)
1 | IINLILILV [HERVK-18] | Higher IFN-γ release
2 | YMLVVGNIV [HERVK-3] | Higher IFN-γ release
